Laboratory results published in patent publication US20250009714A1, “SELECTION AND TREATMENT OF SUBJECTS HAVING A CIRCULATING MYELOID CELL INFLAMMATORY PHENOTYPE” (Tranquis Therapeutics, Inc., priority 2021, published 2025).

Columns and labels:
[1] = tested on: Ly6C^hi inflammatory monocytes; assay: Ex vivo LPS stimulation of wild-type mouse whole blood, FACS of Ly6C^hi cells; assay type: cell-based; conditions: LPS stimulated, increasing concentrations of TQS-168, 5 hours at 37° C.
Description: Lipopolysaccharide (LPS) was used to induce circulating myeloid cells from wild type mice to adopt an inflammatory phenotype in vitro. […] As schematized in FIG. 1C, blood samples from wild-type mice were collected in EDTA tubes and stimulated with LPS. Whole blood was incubated at 37° C. with increasing concentrations of TQS-168 for 5 hours. Whole blood was lysed with lysis buffer from BD Bioscience for 10 minutes at 37C. Lysed blood was centrifuged at 500 g for 10 minutes. The supernatant was decanted, and cell pellet washed with Hank's balanced salt solution (HBSS). The cells were then centrifuged at 300 g for 10 minutes. They were subsequently resuspended in 2 mM EDTA FACS buffer. Fixed cells (100 μL) were washed with PBS. The cells (100 μL) were resuspended in PBS containing Zombie Aqua solution (Biolegend) at a 1:500 dilution. The cells were incubated in the dark at room temperature for 5 minutes. The cells were then washed with FACS buffer. The cells were stained with Cd11b, Ly6G, and Ly6C antibodies (BD Bioscience). The cells were then incubated with antibodies for 30 minutes. They were then washed with FACS buffer and then resuspended also in FACS buffer. Finally, the cells were acquired on flow cytometer.

[2] = tested on: plasma cytokines (IL-6, IL-10, TNFα, interferon gamma, CXCL5, etc.); assay: Plasma cytokines in SOD1 mice (48-plex Procarta panel); assay type: in vivo, mouse; conditions: 50 mg/kg oral gavage every 3 days from Day 70 until day of euthanasia
Description: (§1) 60-day old transgenic mice overexpressing the human SOD1-G93A ALS-causing mutation (stock #002726) and wild-type mice (WT; C57BL/6J) were obtained from the Jackson Labs. Oral dosing by gavage started at 70 days of age. SOD1 mice received either TQS-168 50 mg/kg every 3 days or vehicle (same volume and frequency). The staff that dosed and assessed the mice were blinded to treatment allocation. Blood samples were collected in EDTA tubes at 2 time points: 90 days of age and time of euthanasia. Blood samples were processed for flow cytometry and plasma cytokine analysis. Flow cytometry methods employed are the same as those employed in Example 1 and Example 2.
Blood samples were collected from SOD1 mice at Day 90 and time of euthanasia. Plasma samples were assayed using the 48-plex Procarta panel (Thermo Fisher).

[3] = tested on: Ppargc1α (PGC-1α) expression; conditions: direct molecular binding partner unknown; cited from earlier work
[4] = Plasma levels of TQS-168 after a single oral dose in wild-type mice; assay type: in vivo, mouse; conditions: single 50 mg/kg dose
Description: FIG. 2A plots plasma concentration of TQS-168 over time after a single oral dose of […] TQS-168 in mice. FIG. 2B is a timeline representative of the protocol of the SOD1 mouse study. Plasma levels of TQS-168 in wild-type mice were analyzed subsequently to a single 50 mg/kg dose of TQS-168.

[5] = tested on: CD14+CD16+ monocytes; assay: Four-hour ex vivo incubation of whole blood of ALS patients, FACS of CD14+CD16+ monocytes; assay type: cell-based, human; conditions: 4-hour ex vivo incubation
Description: Whole blood samples from patients with ALS were shipped at room temperature. The percentage of CD14+CD16+ monocytes were determined by fluorescence activated cell sorting (FACS). Briefly, whole blood was lysed with lysis buffer (BD Bioscience) for 10 minutes at 37° C. Lysed blood was centrifuged at 500 g for 10 min. Supernatant was decanted and the cell pellet washed with HBSS (Hank's balanced salt solution). Cells were centrifuged at 300 g for 10 min. Cells were resuspended in FACS buffer (PBS+2% FBS[…]). Fixed cells (100 μL) were washed with PBS. Cells (100 μL) were resuspended in PBS containing Zombie Aqua (Biolegend; 1:500 dilution). Cells were incubated in the dark at room temperature for 5 minutes. Cells were washed with FACS buffer. Cells were stained with 5 μL CD16 and 5 μL CD14 antibodies (BD Bioscience). Cells were incubated with antibodies for 30 minutes. Cells were washed with FACS buffer. Cells were resuspended in FACS buffer. Cells were acquired on a flow cytometer. FIG. 5B outlines the experimental protocol for assessing the effects of ex vivo incubation with TQS-168 on the inflammatory phenotype of circulating myeloid cells in peripheral blood samples of ALS patients. Samples were obtained from iSpecimen (Lexington, MA) and BioIVT (Westbury, NY). Blood samples were processed within 36 hours of collection and were never frozen. […]

[6] = tested on: SOD1-G93A mice; assay: Survival in SOD1 mice (time from birth to euthanasia, righting reflex); assay type: in vivo, mouse
Description: 60-day old transgenic mice overexpressing the human SOD1-G93A ALS-causing mutation (stock #002726) were obtained from the Jackson Labs. Dosing started at 70 days of age. SOD1 mice received either TQS-168 50 mg/kg every 3 days or vehicle (same volume and frequency) by oral gavage. The righting reflex (ability to turn over when place on their backs) was assessed every 3 days when mice were <110 days old and every day after age 110 days. Mice were euthanized if they could not right themselves in 20 seconds after being placed onto their back. Time from birth to euthanasia was calculated for each mouse and compared in the two groups.

[7] = tested on: Ly6C^hi inflammatory monocytes in SOD1-G93A mice; assay: Fraction of inflammatory monocytes in SOD1 mice (flow cytometry of blood); assay type: in vivo, mouse; conditions: 50 mg/kg oral gavage every 3 days from Day 70 until Day 90
Description: as §1, with “The SOD1-G93A transgenic mouse has proven to be a useful tool in the study of ALS. A large majority of […] in the Superoxide dismutase 1 gene. SOD1-G93A mice express human SOD1 with the G93A mutation under control of the human SOD1 promoter. The mice show a phenotype similar to Amyotrophic Lateral Sclerosis in humans. 60-day” for “60-day”

[8] = tested on: SOD1-G93A mice; conditions: SOD1 mouse model; cited from earlier work

| SMILES | LPS-induced increase in percentage of Ly6C^hi inflammatory monocytes [1] | increase in plasma cytokines from Day 90 to day of euthanasia [2] | effect on Ppargc1α (PGC-1α) expression [3] | oral bioavailability (plasma levels) [4] | percentage of CD14+CD16+ monocytes after incubation ([5]; 30 μM, from 1.5% without compound) | change in percentage of intermediate (CD14+CD16+) monocytes with increasing concentrations [5] | survival compared with vehicle ([6]; 50 mg/kg oral gavage every 3 days) | median survival ([6]; 50 mg/kg oral gavage every 3 days from 70 days of age) [days] | difference in median survival versus vehicle ([6]; 50 mg/kg oral gavage every 3 days, vehicle 129) [days] | increase in circulating Ly6C^hi monocytes in SOD1 mice [7] | survival benefit in the SOD1 model (approved ALS treatments) [8] |
| --- | --- | --- | --- | --- | --- | --- | --- | --- | --- | --- | --- |
| CC(C)(C)c1ccc(-c2nc3ccccc3[nH]2)cc1 [TQS-168, 2-(4-tert-butylphenyl)-1H-benzimidazole] | inhibits the LPS-induced increase in Ly6C^hi monocytes | inhibited this increase in plasma cytokines | activator of Ppargc1α (PGC-1α) expression | orally bioavailable | less than 1% | dose-dependent decrease | survived longer | 135 | 6 | inhibited the increase in circulating Ly6C^hi monocytes | – |
| CC1=NN(c2ccccc2)C(=O)C1 [edaravone] | – | – | – | – | – | – | – | – | – | – | failed to display survival benefits |
